According to article PMC4273293 (2014):

How the values were obtained:
[1] = system: Fa2T (DNA, G4) ACAGGGGTGTGGGGACAGGGGTGTGGGG; experiment: FRET melting; details: K+ 10 mM, Li+ 90 mM, Na+ 10 mM; cacodylate buffer, pH 7.2; DNA 0.2 µM; ligand–DNA ratio 5.0
[2] = system: ILPR-DNA a2 (DNA, G4) ACAGGGGTGTGGGGACAGGGGTGTGGGG; experiment: fluorimetric titration; details: K+ 95 mM, potassium phosphate buffer, pH 7.0, 20 °C, DNA concentration in nucleotide bases, per base
[3] = system: 22AG (DNA, G4) AGGGTTAGGGTTAGGGTTAGGG; experiment: CD spectroscopy (induced CD)
[4] = system: 22AG (DNA, G4) AGGGTTAGGGTTAGGGTTAGGG; experiment: fluorimetric titration; details: K+ 95 mM; 20 °C; DNA concentration in oligonucleotide

| ΔTm [1] [°C] | Kb^a2 [2] [M⁻¹] | binding [3] | Kb^22AG [4] [M⁻¹] | Kb^a2 ([2]; site 1 of 2) [M⁻¹] | SMILES |
| --- | --- | --- | --- | --- | --- |
| 4.9 ± 0.5 | 1.2e+06 |  |  |  | CN1C(=CC=C(C=Cc2sc3ccccc3[n+]2C)C=Cc2sc3ccccc3[n+]2C)Sc2ccccc21 |
| 5.8 ± 0.5 | 3.5e+06 |  |  |  | c1cc[n+]2cc3c(cc2c1)c1cc2cccc[n+]2cc1c1c2c[n+]4ccccc4cc2c2cc4cccc[n+]4cc2c31 |
| 14.9 ± 0.5 | 2.4e+06 |  |  |  | C[n+]1cc(NC(=O)c2cccc(C(=O)Nc3cc4ccccc4[n+](C)c3)n2)cc2ccccc21 |
| 3.1 ± 0.5 | 2.5e+06 |  |  |  | COc1cc2cc3c4cc(OC)c(OC)cc4cc[n+]3c(C)c2cc1OC |
| 1.8 ± 0.5 | 300000 | yes |  |  | CN1C(=Cc2cc[n+](C)c3ccccc23)Sc2ccccc21 |
| 3.5 ± 0.5 | 200000 |  | 200000 |  | CN1C=CC(=CC=C(C=Cc2cc[n+](C)c3ccccc23)C=Cc2cc[n+](C)c3ccccc23)c2ccccc21 |
| 14.5 ± 0.5 | 2.7e+06 |  | 200000 |  | CN1C(=CC=C(C=Cc2ccc3ccccc3[n+]2C)C=Cc2ccc3ccccc3[n+]2C)C=Cc2ccccc21 |
| 3.7 ± 0.5 |  |  | 900000 | 5.5e+06 | CN1C(=CC=C(C=Cc2ccc3ccccc3[n+]2C)C=Cc2ccc3ccccc3[n+]2C)C(C)(C)c2ccccc21 |
| 3.4 ± 0.5 |  |  | 390000 | 1.7e+07 | CN1C(=CC=C(C=CC2=[N+](C)c3ccccc3C2(C)C)C=CC2=[N+](C)c3ccccc3C2(C)C)C=Cc2ccccc21 |
| 6.3 ± 0.5 | 2.2e+06 |  |  |  | C[n+]1ccc(-c2c3nc(c(-c4cc[n+](C)cc4)c4ccc([nH]4)c(-c4cc[n+](C)cc4)c4nc(c(-c5cc[n+](C)cc5)c5ccc2[nH]5)C=C4)C=C3)cc1 |
